Data on nine molecules can be found in patent publication US20040110776A1, “Use of propentofylline to control intraocular pressure” (priority 2003, published 2004).

In one series the test system is human anterior segment. The following applies: perfusion of the anterior segment; cited from earlier work.
The test system of series [1] is MMP-3 expression in cultured human trabecular meshwork (HTM-35D) cells. Kind of series: MMP-3 expression in cultured human trabecular meshwork (HTM-35D) cells, proMMP-3 ELISA of medium. Type of series: cell-based. To be noted: 72 hours; for change in MMP-3 expression in the TM cells: indicated concentration (FIG. 1, lower panel). From the text: Propentofylline was unexpectedly discovered to stimulate the expression of metalloproteinase-3 (MMP-3; stromelysin) in cultured human trabecular meshwork cells.
Effect of Various Compounds on MMP-3 Expression in Cultured Human Trabecular Meshwork (HTM-35D) Cells
Human TM cells were isolated, characterized and cultured as described (Steely et al, The effects of dexamethasone on fibronectin expression in cultured human trabecular meshwork cells, Investigative Ophthalmology and Visual Science, 1992;33:2242-2250) They were maintained at 5% CO2 and 37° C. in a medium consisting of Dulbecco's modified Eagle medium with Glutamax I supplemented with 10% fetal bovine serum and 50 μg/mL gentamicin. Confluent cell cultures were treated with the indicated compounds at the indicated final concentration for 72 hours and the medium assayed for proMMP-3 by a commercially available ELISA assay kit. (See FIG. 1.) Abbreviations: PPF-OH is hydroxypropentofylline.

Series [2] has as its system IOP in ocular normotensive rabbits. To be noted: topical instillation of 2%; cited from earlier work.
For a further series, the system named is Rabbit IOP. Kind of series: Rabbit IOP after topical ocular dosing (pneumatonometer). Type of series: in vivo. To be noted: for effect on IOP of rabbits (in words): 500 μg topical (2×25 μL, 1% solution); for % Change in IOP Mean / IOP (mmHg) Mean: 500 μg topical, n = 10. The protocol:
When propentofylline was tested in the rabbit for its potential effect on IOP. […] In this study, the rabbits were placed in restrainers, and IOP was determined with an Alcon Pneumatonometer after light corneal anesthesia with 0.1% proparacaine (Alcaine® diluted with physiogical saline). Following each IOP measurement, residual anesthetic was washed away with saline. After two baseline measurements, animals were dosed topically on the cornea with vehicle or propentofylline (2×25 μL, 1% solution). IOP measurements were taken at indicated intervals.

In series [3] the test system is anterior segments of non-glaucomatous donor eyes. Kind of series: Outflow in human ocular perfusion organ culture. To be noted: 100 μM continuous perfusion, days 2 and 3 after initiation of perfusion. The protocol:
In this ex vivo study, the anterior segments of non-glaucomatous donor eyes were perfused continuously with 100 μM of propentofylline.
Human ocular perfusion organ culture was performed as described (Tschumper, et al. Glycosaminoglycans of human trabecular meshwork in perfusion organ culture. Current Eye Research, 1990;9:363-369; Clark et al, Dexamethasone-induced ocular hypertension in perfusion-cultured human eyes. Investigative Ophthalmology and Visual Science 1995;36:478-489). Briefly, human cadaver eyes, 16 to 20 hours post mortem, were dissected at the equator and the lens, vitreous and iris were removed. The anterior segment of the eye, including cornea and sclera ring containing TM and ciliary body, was placed into a custom-made plexiglass culture dish and sealed in place with a plexiglass O-ring. Culture media (Dulbecco's modified Eagle medium) was placed in a reservoir and perfused through a central cannula in the bottom of the dish. The reservoir was raised to generate approximately 11 mmHg of hydrostatic pressure relative to the center of the perfused eye. The weight of the reservoir was recorded daily. […]
After a 2-4 days stabilization period, the eyes were perfused with either 100 μM propentofylline (PPF) or vehicle alone and their outflow rates monitored for is another 4 days. * represents p<0.05 by Student's t-test. […]

A further series deals with lasered monkey eyes. Kind of series: IOP in lasered (ocular hypertensive) monkey eyes. The class given is in vivo. To be noted: for IOP-lowering effect, single dose: 500 μg in aqueous solution, topical, lasered eye of unanesthetized monkeys; for IOP-lowering effect after repeated doses: 500 μg twice daily, 7 consecutive days, lasered monkey eyes. On the procedure: The IOP-lowering effect of propentofylline in primates was discovered when tested in ocular hypertensive monkeys. In this animal model, the IOP of cynomolgus monkeys was artificially elevated by laser-induced photocoagulation of the TM.
Top Panel: IOP-lowering effect of Propentofylline (PPF) (500 μg) in lasered monkey eyes.
These monkeys received 500 μg of propentofylline twice daily for the indicated days and the IOP was measured right after the morning dosing.
Studies were performed as described previously (Toris, et al., Aqueous humor dynamics in monkeys with laser-induced glaucoma, Journal of Ocular Pharmacology and Therapeutics, 2000;16:19-27). (See FIG. 3.)

Another series concerns IOP in the rabbit. The following applies: cited from earlier work.

As to `N[C@@H](Cc1c[nH]c2ccccc12)C(=O)NO` [L-tryptophan hydroxamate], in the series with human anterior segment, the “effect on outflow facility / aqueous outflow (in words)” value is on record as “suppressed aqueous outflow”.

Take `CC(=O)CCCCn1c(=O)c2c(ncn2C)n(C)c1=O` [Pentoxifylline]: the “change in MMP-3 expression in the TM cells” value (“change in MMP-3 expression” below) in series [1] is “did not produce a statistically significant change”. For the same molecule, the “effect on IOP” value in series [2] was “slight decrease in IOP”. Also, the “effect on IOP of rabbits (in words)” value with Rabbit IOP was “did not significantly lower IOP”. The “% Change in IOP Mean” value in the series on Rabbit IOP (0 hour after treatment) is on record as 0.0%; in the series on Rabbit IOP (1 hour after treatment), −8.9%; in the series on Rabbit IOP (3 hours after treatment), −1.8%; in the series on Rabbit IOP (5 hours after treatment), 17.5%; in the series with Rabbit IOP (7 hours after treatment), 15.9%. Besides, the “IOP (mmHg) Mean” value in the series with Rabbit IOP (0 hour after treatment) came out at 23.8 mmHg; in the series on Rabbit IOP (1 hour after treatment) it was 21.6 mmHg; with Rabbit IOP (3 hours after treatment) it was 23.1 mmHg; in the series with Rabbit IOP (5 hours after treatment), 27.8 mmHg; in the series with Rabbit IOP (7 hours after treatment) it was 27.3 mmHg.

With `CCCn1cnc2c1c(=O)n(CCCCC(C)=O)c(=O)n2C` [Propentofylline, 3-methyl-1-(5′-oxohexyl)-7-propyl-xanthine], in series [1] (100 μM, cultured human trabecular meshwork cells), the “expression of MMP-3” value is given as “significantly increased the expression of MMP-3”. For the same molecule, in series [3], the “outflow rates compared to vehicle-treated eyes” value is “significantly increased”. Moreover, the “effect on IOP of rabbits (in words)” value in the series with Rabbit IOP is reported as “did not affect the IOP of rabbits”. Also, the tolerability result in the series on Rabbit IOP (500 μg topical onto the eye) is “well tolerated”; in the series on lasered monkey eyes (monkeys, 500 μg topical), “well tolerated”. The “% Change in IOP Mean” value in the series on Rabbit IOP (0 hour after treatment) was 0.0%; with Rabbit IOP (1 hour after treatment), −10.0%; with Rabbit IOP (3 hours after treatment), 1.3%; in the series with Rabbit IOP (5 hours after treatment), 1.1%; in the series on Rabbit IOP (7 hours after treatment), 4.7%. The “IOP (mmHg) Mean” value is given as 23.5 mmHg with Rabbit IOP (0 hour after treatment); 21.0 mmHg in the series on Rabbit IOP (1 hour after treatment); 23.6 mmHg with Rabbit IOP (3 hours after treatment); 23.5 mmHg in the series on Rabbit IOP (5 hours after treatment); 24.0 mmHg in the series on Rabbit IOP (7 hours after treatment). The entries for the “IOP-lowering effect, single dose” value with lasered monkey eyes and in the series with lasered monkey eyes (listed as propentofylline) were “clearly reduced IOP at 1 hour” and “dramatic decrease in IOP”, respectively. Further, the “IOP-lowering effect after repeated doses” value in the series with lasered monkey eyes was “ocular hypotensive even after repeated doses”; in the series with lasered monkey eyes (listed as propentofylline), “persisted even after 7 consecutive days”.

For `OCCN(CCO)c1nc(N2CCCCC2)c2nc(N(CCO)CCO)nc(N3CCCCC3)c2n1` [dipyridamole], the “change in MMP-3 expression” value in series [1] is “did not produce a statistically significant change”.

As for `CCCn1cnc2c1c(=O)n(CCCCC(C)O)c(=O)n2C` (stereo not drawn) [hydroxy-propentofylline], the “change in MMP-3 expression” value in series [1] is given as “did not produce a statistically significant change”.

Regarding `CC(C)OC(=O)CCC/C=C\C[C@@H]1[C@@H](CC[C@@H](O)CCc2ccccc2)[C@H](O)C[C@@H]1O` [latanoprost], the “effect on IOP in the rabbit” value in the series with IOP in the rabbit is given as “no measurable effect on IOP”.

Turning to `CN(C)c1ccc(O)c2c1C[C@H]1C[C@H]3[C@H](N(C)C)C(O)=C(C(N)=O)C(=O)[C@@]3(O)C(O)=C1C2=O` [minocylcine], in the series on human anterior segment, the “effect on outflow facility / aqueous outflow (in words)” value is recorded as “suppressed aqueous outflow”.

Regarding `CC[C@@H]1C(=O)OC[C@@H]1Cc1cncn1C` [pilocarpine], in the series on IOP in the rabbit, the “effect on IOP in the rabbit” value is reported as “no measurable effect on IOP”.

B1: interleukin-1α: cytokine known to increase the expression of matrix metalloproteinases in the TM (protein, UniProt P01583 113-271, looked up)
Interleukin-1 alpha: SAPFSFLSNVKYNFMRIIKYEFILNDALNQSIIRANDQYLTAAALHNLDEAVKFDMGAYKSSKDDAKITVILRISKTQLYVTAQDEDQPVLLKEMPEIPKTITGSETNLLFFWETHGTKNYFTSVAHPNLFIATKQDYWVCLAGGPPSITDFQILENQA
Consider B1, for which, in the series with human anterior segment, the “effect on outflow facility / aqueous outflow (in words)” value was “augmented the outflow facility”.
